ChEMBL document CHEMBL1145318, “Amide-substituted farnesylcysteine analogs as inhibitors of human isoprenylcysteine carboxyl methyltransferase” (Bioorg Med Chem Lett, 2006)

How the values were obtained:
[1] = target: T1, Protein-S-isoprenylcysteine O-methyltransferase (Homo sapiens, UniProt O60725); experiment: Inhibition of human Icmt in Saccharomyces cerevisiae cell membrane relative to control by SPA; values are per cent of control; design: concentration or dose not given beside the values
[2] = target: T1, Protein-S-isoprenylcysteine O-methyltransferase; experiment: Inhibition of human Icmt by methanol vapour diffusion assay

T1 sequence (O60725 whole entry, the tested form may be a part): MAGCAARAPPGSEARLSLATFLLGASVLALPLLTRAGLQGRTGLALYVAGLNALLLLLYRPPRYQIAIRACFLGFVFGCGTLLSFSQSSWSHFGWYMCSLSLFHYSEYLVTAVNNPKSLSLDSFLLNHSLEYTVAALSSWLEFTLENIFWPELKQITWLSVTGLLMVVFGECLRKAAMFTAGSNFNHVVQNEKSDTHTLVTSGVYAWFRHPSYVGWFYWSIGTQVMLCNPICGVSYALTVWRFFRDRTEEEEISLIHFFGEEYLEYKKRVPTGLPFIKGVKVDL

A residual activity [1] of 28% and an IC50 [2] of 20.3 µM were found for `CC(C)=CCC/C(C)=C/CC/C(C)=C/CSC[C@H](NC(=O)c1cc2ccccc2s1)C(=O)O` in this work.

A residual activity [1] of 37.1% and an IC50 [2] of 14.3 µM were found for `CC(C)=CCC/C(C)=C/CC/C(C)=C/CSC[C@H](NC(=O)c1cc([N+](=O)[O-])cc([N+](=O)[O-])c1)C(=O)O` in this work.

A residual activity [1] of 33.5% and an IC50 [2] of 23 µM were found for `CC(C)=CCC/C(C)=C/CC/C(C)=C/CSC[C@H](NC(=O)c1cc(Cl)cc(Cl)c1)C(=O)O` in this work.

A residual activity [1] of 35.1% and an IC50 [2] of 17.4 µM were found for `COc1ccc(-c2ccc(C(=O)N[C@@H](CSC/C=C(\C)CC/C=C(\C)CCC=C(C)C)C(=O)O)o2)cc1` in this work.

A residual activity [1] of 50.1% and an IC50 [2] of 16.6 µM were found for `CC(C)=CCC/C(C)=C/CC/C(C)=C/CSC[C@H](NC(=O)c1ccc([N+](=O)[O-])cc1)C(=O)O` in this work.
